From article PMC9578143, “Small-Molecule Ebselen Binds to YTHDF Proteins Interfering with the Recognition of N^6-Methyladenosine-Modified RNAs” (ACS Pharmacology & Translational Science, 2022)
Read-outs that look alike come from different tables or passages of the source.

Key:
[1] = molecular target: T1, YTHDF1 YTH domain (Homo sapiens, UniProt Q9BYJ9); test: NMR titration (2D 1H-15N HSQC) in reducing conditions; type: binding; details: 10 mM β-mercaptoethanol, 100 μM protein
T1 construct: The human YTHDF1 YTH domain (amino acids 365–554, PDB: 4RCJ); host or cells: E. coli BL21(DE3)
T1 sequence (Q9BYJ9 365-554): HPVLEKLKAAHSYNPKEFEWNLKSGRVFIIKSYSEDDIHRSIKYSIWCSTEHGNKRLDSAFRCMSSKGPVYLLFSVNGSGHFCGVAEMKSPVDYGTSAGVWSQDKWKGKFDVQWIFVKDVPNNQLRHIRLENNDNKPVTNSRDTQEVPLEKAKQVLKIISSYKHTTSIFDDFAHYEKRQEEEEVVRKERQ
Protocol: To further investigate the ligand–protein interaction in reversible conditions, the resonances of the YTHDF1 YTH domain were assigned. The protein sample was titrated with ebselen, in the presence of β-mercaptoethanol (10 mM) as a reducing agent, to prevent the covalent bond formation. The titration was monitored by NMR to map at atomic resolution the ligand-binding site on the protein surface. Increasing amounts of the ligand (12.5, 25, 50, 100, and 200 μM) were added to the protein solution during the NMR titration, and 2D ^1H–^15N heteronuclear single quantum coherence (HSQC) spectra were acquired.
The interaction of the protein with ebselen was investigated by solution NMR. 2D ^1H–^15N HSQC spectra were acquired on a spectrometer operating at 950 MHz and 298 K, on the free protein (100 μM in 20 mM Tris buffer, pH 7.5, 150 mM NaCl, 250 mM LiCl, 10 mM 2-mercaptoethanol, 0.5 mM EDTA, 0.1% NaN3, and protease inhibitors) and after the addition of increasing aliquots of a solution of the ligand in DMSO-d6 to reach the final concentrations of 12.5, 25, 50, 100, and 200 μM.

[2] = molecular target: T2, YTH domain of the YTHDC1 protein (Homo sapiens, UniProt Q96MU7); test: Tryptophan fluorescence quenching assay; type: binding
T2 construct: made in house
Protocol: (§1) Fluorescence was measured using a Tecan Infinite 200 Microplate reader (Tecan Group Ltd.), setting the […] wavelength at 288 nm and collecting the emission data at 330 nm.

[3] = molecular target: T3, human YTHDF2 YTH domain (Homo sapiens, UniProt Q9Y5A9); test: Tryptophan fluorescence quenching assay; type: binding
T3 construct: the human YTHDF2 YTH domain (amino acids 383–553, PDB: 4WQN); made in house; host or cells: E. coli BL21(DE3)
T3 sequence (Q9Y5A9 383-553): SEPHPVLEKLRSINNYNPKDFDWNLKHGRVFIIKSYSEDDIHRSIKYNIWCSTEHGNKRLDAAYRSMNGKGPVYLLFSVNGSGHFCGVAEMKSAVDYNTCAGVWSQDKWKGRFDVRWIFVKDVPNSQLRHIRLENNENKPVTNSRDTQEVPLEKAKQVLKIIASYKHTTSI
Protocol: as §1

[4] = molecular target: T1, YTHDF1 YTH domain; test: Tryptophan fluorescence quenching assay; type: binding
Protocol: as §1

[5] = test system: m6A levels in poly(A) purified mRNA of PC-3 cells; test: m6A level by 2D thin-layer chromatography; type: cell-based, human; details: 24 h time frame
Protocol: 100 ng of the poly(A) purified RNA was used as the input. Processed samples were analyzed on glass-backed PEI-cellulose plates (MerckMillipore) as described previously. Plates were exposed to a storage phosphor screen below saturation and processed on a Typhoon NIR laser scanner (Cytiva). Quantification of individual nucleotides was done with ImageJ. The relative amount of m6A was calculated as a percent of the total A (sum of both A and m6A spot intensity).

[6] = molecular target: T4, YTHDF1 domain (Homo sapiens, UniProt Q9BYJ9); test: High-throughput screen, tryptophan quenching, Z-score; type: binding; details: 5 μM protein, compounds at 10 μM
T4 construct: The human YTHDF1 YTH domain (amino acids 365–554, PDB: 4RCJ); host or cells: E. coli BL21(DE3)
T4 sequence (Q9BYJ9 365-554): T1 sequence (Q9BYJ9 365-554)
Protocol: A Z factor of 0.53 was obtained. The high-throughput screen was performed by using an automatic liquid handling (Freedom EVO, Tecan), filling black 384-well plates with 15 μL of 5 μM protein in 20 mM Tris (pH 7.5), 150 mM NaCl, and 10% glycerol, and then by adding the library of compounds at a final concentration of 10 μM. Fluorescence was measured immediately after compound addition. The library used was the Spectrum Collection (Microsource Discovery System, Inc.), composed of 2560 compounds, of whom 60% are clinically used drugs, 25% natural products, and 15% other bioactive molecules. The Z-score was calculated as (X – μp)/σp, where X is the fluorescence intensity of the protein. Candidate molecules were considered all of the ones that were under the threshold of Z = −3, while all of the ones over that value were discarded.

## O=c1c2ccccc2[se]n1-c1ccccc1 [Compound 1, 2-phenyl-1,2-benzisoselenazol-3(2H)-one]
[1]
  Affinity constant judged from NMR titration (in words): low micromolar range
[2]; listed as Ebselen
  Interaction with the YTH domain (tryptophan fluorescence, in words): cannot reduce tryptophan fluorescence
[2]; listed as ebselen
  Interaction with the YTH domain (tryptophan fluorescence, in words): did not interact
[3]
  EC50: 1660 nM
[4]; 5 μM protein, read-out: EC50 (tryptophan quenching)
  EC50: 1.63 µM
[4]; Table 1, read-out: EC50 (μM) (Tryptophan quenching)
  EC50: 1.5 ± 0.24 µM
[5]
  Overall m6A methylation level (in words): no significant changes
[6]
  Mean(FI.z-score): -3.819
